In paper PMC5578373, “Inhibitory Kappa B Kinase α (IKKα) Inhibitors That Recapitulate Their Selectivity in Cells against Isoform-Related Biomarkers” (Journal of Medicinal Chemistry, 2017):
“Also recorded” adds a separate entry of the source. Like-named read-outs stand apart in the source and are kept apart here.

Tests used:
[1] = tested on: IKKβ-dependent IκBα degradation in U2OS cells; test: TNFα-induced IκBα degradation in U2OS cells, Western blot; assay type: cell-based, human; settings: highest concentration 100 μM, TNF-α (10 ng/mL) 30 min
Description: (§1) Two IKKβ-dependent readouts were selected to assess selectivity over IKKβ. First, TNFα stimulates IκBα degradation through activation of IKKβ and if IKKβ is inhibited, then a band corresponding to the IκBα protein should be evident by Western analysis. Second, IKKβ phosphorylates p65 on Ser536, which can also be assessed by Western blot analysis. Only at the highest concentration (100 μM) of 48 was IκBα degradation and p65 (Ser536) phosphorylation inhibited (Figure 9b). Even at this high concentration, these effects were not apparent following pretreatment with 47 (Figure 10b).
(§2) Figure 9 Effect of compound 48 on (a) FCS-stimulated noncanonical and (b) TNF-α-induced canonical NF-kB activation in U2OS cells. […] Whole cell lysate were prepared, separated by SDS-PAGE, and assessed for (a) inhibition of p100 phosphorylation (Ser866/870) and (b) IkB-α and p-p65 (Ser536) status. […]
as §2, with “10” for “9”, “47” for “48”
(§3) Whole cell lysates were prepared from U2OS and status of IκBα, p65, p-p65 (Ser536), and p-p100 (Ser 866/870) assessed by Western blotting as described in Mackenzie et al. (2007).[46]

[2] = tested on: IKKα-regulated NF-κB transcriptional activation in IKKβ−/− MEFs; test: IL-1β-stimulated NF-κB-luciferase transcriptional activity in IKKβ knockout MEFs; assay type: cell-based, mouse
Description: To provide further evidence for cellular activity, mouse embryonic fibroblasts lacking the IKKβ kinase subunit were utilized to investigate the potency of both compounds against agonist-stimulated IKKα-regulated NF-κB transcriptional activation. Cells were infected with an adenovirus encoding an NF-κB-luciferase promoter gene. NF-κB transcriptional activity driven by IKKα was stimulated specifically using IL-1β,[41] and the ability of the compounds to inhibit this response was assessed. […] As IKKα plays a lesser role in the canonical NF-κB cascade,[42] particularly the rapid and transient stimulated degradation of IκBα, selective IKKα inhibitors should not affect TNF-α induced IκBα degradation and p65 phosphorylation.
(§4) U2OS cells were cultured with McCoy’s 5A modified medium and MEF were cultured with DEME medium containing 10% (v/v) FCS and medium was changed every 2 d thereafter until cells became confluent. Cells were incubated at 37 °C in humidified air with 5% CO2 and rendered quiescent by serum deprivation for 24 h prior to stimulation in serum-free medium.
An adenoviral vector encoding NFκB-luciferase (Adv.NFκB-Luc) was purchased from Vector Biolabs (University of Pennsylvania, Philadelphia, US). Large-scale production of high titer recombinant adenovirus was performed by routine methods.[47] IKKβ knockout mouse embryonic fibroblasts (MEFs; kindly provided by Prof. I. Verma, UCSD, USA) were counted when approximately 60–70% confluent in T75 cm^2 flasks and infected with adenovirus up to 300 pfu/cell^–1 for 24 h in 10% DMEM. Cells were then lifted from the flasks and plated into 96-well clear bottom, black luciferase plates and allowed to settle for 24 h before serum starved overnight. Cells were then stimulated with the appropriate agonists for the indicated times and reactions terminated by addition of lysis buffer containing 0.2 mM luciferin substrate. Relative light units (RLU) were measured using a Trilux microbeta counter (luminometer).

[3] = tested on: IKKβ-dependent p65 (Ser536) phosphorylation in U2OS cells; test: TNFα-induced p65 (Ser536) phosphorylation in U2OS cells, Western blot; assay type: cell-based, human; settings: highest concentration 100 μM, TNF-α (10 ng/mL) 30 min
Description: as §1, §2
as §2, with “10” for “9”, “47” for “48”
as §3

[4] = tested on: IKKα-driven p100 phosphorylation in U2OS cells; test: FCS-stimulated p100 phosphorylation (Ser866/870) in U2OS cells, Western blot; assay type: cell-based, human; settings: 1 h pretreatment, FCS (10%) for 4 h, blots quantified, read-out: IC50 for inhibition of p100 phosphorylation
Description: as §1
(§5) Figure 9 Effect of compound 48 on (a) FCS-stimulated noncanonical and (b) TNF-α-induced canonical NF-kB activation in U2OS cells. Cells were pretreated with 48 1 h prior to stimulation with FCS (10%) for 4 h or TNF-α (10 ng/mL) for 30 min. Whole cell lysate were prepared, separated by SDS-PAGE, and assessed for (a) inhibition of p100 phosphorylation (Ser866/870) and (b) IkB-α and p-p65 (Ser536) status. […] The results are representative of three independent experiments.
as §5, with “10” for “9”, “47” for “48”
as §4, §3

N#Cc1c[nH]c2nc(N)nc(-c3ccc(CO)cc3)c12 [Compound 47, 2-Amino-4-(4-hydroxymethyl)phenyl-7H-pyrrolo[2,3-d]pyrimidine-5-carbonitrile]
inhibition of TNFα-stimulated IκBα degradation [1]: not apparent; also recorded: did not affect
% stimulation ([2]; 100 μM compound, 1 h pretreatment, IL-1β (10 ng/mL) 6 h, IL-1β + DMSO = 100, mean ± SEM): –40.9 ± 4.6 %
inhibition of NF-κB transcriptional activity ([2]; maximal concentrations of 50–100 μM): approximately 81%
% stim ([2]; maximal concentrations of 50–100 μM, Il-1β+DMSO = 100%): 18.79 ± 7.2%
inhibition of TNFα-stimulated p65 (Ser536) phosphorylation [3]: not apparent; also recorded: did not affect
IC50 [4]: 19.1 µM
IC50 ([4]; Homo sapiens, U2OS): 13.9 µM
